Assay results: patent publication US7795242B2, “Methods and compositions for immunomodulation” (The Brigham and Women's Hospital, Inc., priority 2003, dated 2010)

Experiments:
CD1d [1] = target: T1, CD1d (Homo sapiens, UniProt P15813); details: Im et al., J Biol Chem., 279:299-310, 2004; cited from earlier work
IL1AP T cells = assay: Proliferative response of IL1AP T cells stimulated with antigen and dendritic cells ([3H]-thymidine incorporation); format: cell-based, human; details: for stimulation (proliferation) of IL1AP T cells: DC as APC, FIG. 1A, 2B, 6E, 7A
Protocol: The antigens provided herein were identified with T-cell activation assays performed using purified fractions in order to determine their relative ability to activate T-cells. These assays were carried out essentially as described in U.S. Pat. Nos. 5,679,347; 5,853,737; and 6,238,676, and in Rosat et al. J. Immunol. 162:366-371, 1999. Other procedures are well-known in the art.
To generate CD1-restricted T cells that recognize novel antigens, we stimulated human peripheral blood lymphocytes using a method that reduces the outgrowth of MHC-restricted T cells and favors the detection of CD1-restricted T cells. This involves the repeated stimulation of lymphocytes with lipid antigens with monocyte-derived dendritic cells (DC) from donors that differ in their MHC protein expression, so that T cells responding to DC with a given MHC class I or II molecule will not be repeatedly stimulated and therefore […] in T cell lines produced after many rounds of stimulation. DCs were prepared from the peripheral blood of healthy donors by centrifugation over Ficoll-Hypaque, adherence of the mononuclear cells to plastic tissue culture flasks, culture of adherent cells with 300 U/ml GM-CSF and 200 U/ml IL-4 for 3 days, followed by irradiation (3300 R).
DC and T cells were cultured at a 1:5 ratio in the presence of 1 μg/ml LKKRRL mixture to yield T cell lines. T cells lines were used to generate clones by culturing T cells at approximately 1 cell per well with phytohemagglutinin, peripheral blood mononuclear cells, transformed B cell lines and 2 nM IL-2. This protocol yielded a polyclonal T cell line IL1AP and several clones derived there from, which are named IL1AP.15, IL1AP.31.
To assay the proliferative responses of IL1AP T cells, 5*10^4 Polyclonal IL1AP T cells were stimulated with 3*10^4 DC and LKKRRL mixture (FIG. 1A). […] C1R cells transfected with the vector pSRα-NEO, containing the cDNAs encoding human CD1a, CD1b, CD1c, CD1d, or no insert (C1R mock) were used as alternative APC for the stimulation of polyclonal T cells with LKKRRL mixture (FIG. 1C). […]

J.RT3.ABd cells = assay: IL-2 release by J.RT3 cells transfected with IL1AP TCR α and β chains (J.RT3.ABd); format: cell-based; details: FIG. 11A
Protocol: We transfected the full-length TCR α and β chains from IL1AP cells into J.RT3 cells to generate a TCR-expressing reporter cell line (J.RT3.ABd). […] To determine whether PPBF could activate through intact CD3 complexes that were reconstituted by transfection of a TCR with irrelevant antigen specificity, J.RT3-T3.5 cells transfected with the TCR α and β chains of the CD8-2 cell line (J.RT3-CD8-2) that recognizes the mycobacterial lipopeptides DDM were tested for IL-2 release upon stimulation with DDM or PPBF.

CD1d [2] = target: T1, CD1d; assay: Competition with αGalCer-mediated NK T cell activation on plate-bound recombinant CD1d; format: cell-based; details: FIG. 8; for block of αGalCer-mediated NK T activation: compound added in excess to plate-bound recombinant CD1d
Text: Next, to determine whether PPBF could compete with αGalCer-mediated NK T cell responses, we used an in vitro assay of PPBF added to recombinant CD1d proteins bound to a plate.

polyclonal lymphocytes = assay: Proliferative response of polyclonal lymphocytes and T cell clones; format: cell-based, human; details: data not shown
Protocol: To determine whether PPBF non-selectively activated polyclonal lymphocyte populations or selectively activated antigen-specific clones present at low precursor frequency in vivo, polyclonal lymphocytes were tested for their proliferative response to PPBF.

T cell line IL1AP = assay: IL-2 release by PPBF-reactive T cell line IL1AP with DC as APC (HT-2 bioassay); format: cell-based, human; details: IL-2 measured 24 h after stimulation; FIG. 7A
Protocol: Because αGalCer was previously known to function as a potent activator of CD1d-restricted T cell clones known as NK T cells, we sought to determine whether PPBF-reactive T cells and αGalCer-reactive T cells cross react. The PPBF-reactive T cell line IL1AP and the αGalCer-reactive T cell clone J3N.5 were each stimulated with αGalCer and PPBF using DC as APC. IL-2 release was measured 24 h after stimulation. The IL-2 concentration in 50 μl of culture supernatants, harvested 24 hours after T cell stimulation, was determined by adding 10^4 IL-2 starved HT-2 cells in […] medium, and a 6 h pulse after a 24 h incubation.

O=S(=O)(O)c1ccc2cc(Nc3ccccc3)ccc2c1 [2,6-anilonapthalene sulfonic acid]
binding to CD1d (CD1d [1]): has been shown to bind CD1d

Cc1c(C)c(S(=O)(=O)Oc2ccccc2)c(C)c2c1OC(C)(C)C2 [PPBF, phenyl-2,2,4,6,7-pentamethyldihydrobenzofuran-5-sulfonyl]
stimulation (proliferation) of IL1AP T cells (IL1AP T cells): Only the T cell line IL1AP and clones derived therefrom were activated by PPBF | stimulation (proliferation) of IL1AP T cells (IL1AP T cells; listed as Synthetic PPBF): potently stimulate | IL-2 production by J.RT3.ABd cells upon stimulation (J.RT3.ABd cells): conferred the ability to produce IL-2 upon stimulation with PPBF | degree and titer of inhibition of αGalCer-mediated NK T activation compared with 2,6-ANS (CD1d [2]): comparable to that of 2,6-anilonapthalene sulfonic acid | block of αGalCer-mediated NK T activation (CD1d [2]): substantially block αGalCer-mediated NK T activation in a dose-dependent manner

phytohemagglutinin [reference compound]
activation of polyclonal T cells and T cell clones (proliferative response) (polyclonal lymphocytes): activated by the mitogen phytohemagglutinin

3-methyl-PPBF
capacity to stimulate IL1AP T cell proliferation relative to PPBF (IL1AP T cells; FIG. 6E): stimulated T cells more potently than PPBF | degree and titer of inhibition of αGalCer-mediated NK T activation compared with 2,6-ANS (CD1d [2]): comparable to that of 2,6-anilonapthalene sulfonic acid | block of αGalCer-mediated NK T activation (CD1d [2]): substantially block αGalCer-mediated NK T activation in a dose-dependent manner

CCCCCCCCCCCCCCCCCCCCCCCCCC(=O)N[C@@H](CO[C@H]1O[C@H](CO)[C@H](O)[C@H](O)[C@H]1O)[C@H](O)[C@H](O)CCCCCCCCCCCCCC [αGalCer, α-galactosyl ceramide]
recognition by IL1AP T cells (IL-2 release) (T cell line IL1AP): did not recognize αGalCer
